We go through two compounds from patent publication US7449114B2, “Halogenated solvent remediation” (SRP Technologies, Inc., priority 2000, dated 2008).

A short description of data set [1]: Surface tension of electron donor solutions, pendant drop method. It counts as physicochemical. The note with it: for change in surface tension: 0% ethyl lactate. As to the method: (§1) Based on the field results presented in Example 1, laboratory studies were performed to confirm that the enhanced bioavailability of TCE observed in the field was due to co-solvent or surfactant behavior resulting from the use of high concentrations of sodium lactate. Two fundamental properties used to screen the co-solvent or surfactant properties of a solution are surface tension and interfacial tension. Surface tension measures the force per unit length along the interface between a liquid and air due to its tension. When a co-solvent or surfactant is present in an aqueous liquid at increasing concentrations, the surface tension of that liquid decreases. Interfacial tension is similar to surface tension except that it measures the force per unit length along the interface between two liquid phases arising from the surface free energy. The higher the interfacial tension between two liquids, the less likely one is to dissolve into the other, and the more difficult it is for one to be transported within the other. […]
The laboratory study performed to confirm the co-solvent properties of the high concentration electron donor solution measured the surface tension of electron donor solutions at various concentrations. Next, interfacial tensions between the same electron donor solutions and nonaqueous phase TCE were measured. […] Surface and interfacial tension measurements were made using the pendant drop method (M. J. Rosen, ed., Structure/Performance Relationships in Surfactants, American Chemical Society, Washington D.C. 329 (1984); R. D. Bagnall & P. A. Arundel, The Profile Area of Pendant Drops, 82 J. Phys. Chem. 898 (1978)) coupled with real-time video imaging (M. D. Herd et al., Interfacial Tensions of Microbial Surfactants Determined by Real-Time Video Imaging of Pendant Drops, Proceedings paper number SPE/DOE 24206 513-519, SPE/DOE Eighth Symposium on Enhanced Oil Recovery, Tulsa, Okla. (1992)). […]

Data set [2] deals with chloroethenes (primarily TCE) in ground water. The data set can be described thus: Field evaluation of enhanced in situ bioremediation, Test Area North (Example 1). As to conditions: all wells receiving significant lactate concentrations. As to the method:
A 1-year field evaluation of enhanced in situ bioremediation was performed at Test Area North (“TAN”) of the Idaho National Engineering and Environmental Laboratory. […] The locations of a 5,000 μg/L TCE isopleth (14); 1,000 μg/L TCE isopleth (16); 100 μg/L TCE isopleth (18); and 5 μg/L TCE isopleth (20) are shown by solid lines. FIG. 2 illustrates a cross section of this site, showing the surface of the ground (22), an approximately 63-m (210-feet) fractured basalt unsaturation zone (24) (not drawn to scale), an approximately 60-m (200-feet) fractured basalt aquifer (26), and an impermeable clay interbed (28). […]
The initial electron donor addition strategy involved continuous injection of potable water at 37.85 liters/minute (10 gpm) into Well TSF-05. […] It was determined that the continuous injection of clean water at 37.85 liters/minute (10 gpm) overwhelmed the flux of contaminants from the secondary source. […] This was intended to prevent significant quantities of electron donor from collecting in the injection well and to help prevent biofouling. […]
Eleven monitoring wells (i.e., TAN-D2, TAN-9, TAN-10A, TAN-25, TAN-26, TAN-27, TAN-28, TAN-29, TAN-30A, TAN-31, and TAN-37) were sampled biweekly and analyzed for electron donors, biological activity indicators, competing inorganic electron acceptors and their reduced products, chloroethenes, ethene, pH, temperature, and specific conductivity.

The test system of data set [3] is chlorinated ethenes (PCE, TCE) in groundwater. The data set can be described thus: Biostimulation pilot test, IR Site 40, Seal Beach (Example 4). As for the experimental part:
A biostimulation pilot-test program for in situ anaerobic bioremediation of chlorinated ethenes in groundwater was conducted at Installation Restoration (IR) Program Site 40, Naval Weapons Station Seal Beach, Calif. IR Site 40 includes a concrete pit in a locomotive shop building and a gravel area north of and adjacent to the building. Oil and solvents spilled during locomotive maintenance collected in the pit and discharged to the gravel area via a drainpipe (FIG. 11). Groundwater was contaminated with chlorinated solvents, primarily PCE and trichloroethene (TCE). The plume extends over 100 meters (m) downgradient of the source area and is generally limited in extent to approximately 20 m below ground surface. The groundwater gradient is relatively flat and is influenced by tidal fluctuations. The net gradient direction is southeasterly. The Seal Beach National Wildlife Refuge lies downgradient of the site.
The tests were conducted in the area interpreted to have the highest PCE concentrations in groundwater. The tests were conducted over an 8-month period from August 2001 through mid-March 2002. Approximately 210,000 liters (55,500 gallons) of 3 percent sodium lactate solution was injected. A direct injection system was selected over recirculation to avoid reinjection of untreated water into the test cell. A 60 percent sodium lactate solution (JRW Technologies, Lenexa, Kans.) was diluted to 3 percent with potable water using a proportional injector (Dosatron International, Bordeaux, France). Lactate was injected at an average rate of approximately 3,550 gallons per week for the first 2 months. The average injection rate was then adjusted to approximately 750 gallons per week to maintain optimum electron-donor concentrations. No clogging or fouling effects were observed over the course of the pilot test. Water level measurements were performed during injection to assess the induced gradient.
Effects were monitored in seven wells in the pilot-test area. Two wells are located crossgradient and five downgradient of the injection well at distances ranging from approximately 2 to 30 m. Pretest groundwater samples were collected to establish baseline conditions. Weekly groundwater samples were collected during and analyzed on-site using field test kits for sulfate, ferrous iron, alkalinity, chemical oxygen demand (COD) (Hach, Loveland, Colo.), nitrate, and carbon dioxide (CHEMetrics, Calverton, Va.) and direct reading instrumentation for pH, temperature, conductivity, oxidation-reduction potential, and dissolved oxygen (YSI, Yellow Springs, Ohio). Monthly groundwater samples were analyzed off-site for volatile organic compounds, alkalinity, COD, anions, cations, total dissolved solids (Columbia Analytical Services, Kelso, Wash.), and dissolved gases (Performance Analytical, Simi Valley, Calif.). Samples were periodically analyzed for organic acids (Idaho National Engineering and Environmental Laboratory [INEEL], Idaho Falls, Id.), phospholipid fatty acids (Microbial Insights, Rockford, Tenn.), and DNA typing using quantitative polymerase chain reaction (PCR) and terminal restriction fragment length polymorphisms (T-RFLP) analyses (University of California, Berkeley, Calif.), according to methods well known in the art.

Data set [4] concerns PCE/TCE plume in ground water. The data set can be described thus: Sodium lactate injection pilot test, Tennessee Air National Guard Site, Memphis (Example 3). As to conditions: after 8 months and 4 lactate injections. The text has this:
Site Background. A site-wide Remedial Investigation (RI) identified a chlorinated solvent plume in a sandy aquifer approximately 35 to 60 feet (10.7 to 18.3 m) below ground surface at the 164th Airlift Wing at the Tennessee Air National Guard Site, Memphis, Tenn. The plume area targeted for treatment was over 2 acres (0.81 hectares). This unconfined saturated interval is overlain by an inorganic loess vadose zone and is separated from the deeper regional aquifer by a clay unit. PCE concentrations ranged from 5 to 1,000 μg/L in the target area, while TCE ranged from 100 to greater than 15,000 μg/L in the injection/monitoring wells. […] A pilot test of a sodium lactate injection system to enhance natural reductive dechlorination in the groundwater was approved by the Tennessee Department of Environment and Conservation, the Memphis and Shelby County Health Department, and the Shelby County Ground Water Control Board.
System Design. A three-dimensional model to simulate groundwater flow was developed using the MODFLOW simulator (U.S. Geological Survey). Once calibrated, model simulations were used to determine the optimal injection well locations, as well as the rate and duration of injection. Based on the results of other sodium lactate injection sites, a period of 60 days between injections was assumed. The optimal configuration was determined to be a 9-well injection system at an injection rate of 10 gallons per minute (gpm; 37.8 liters/minute) for 5 days.
Potable water was mixed with 60% sodium lactate to create a 1% solution. An existing 8-inch (20.3-cm) water line was tapped and connected to the distribution control header via a 4-inch (10.2-cm) line, which was housed in a portable 12-ft×14-ft (3.6-m×4.3-m) building. A double-check valve assembly was installed on the 4-inch (10.2-cm)water line to prevent back-siphoning of the injection solution into the 8-inch (20.3-cm) potable water line. Following a mixing zone with the potable water, the resulting 1% solution was delivered to the nine injection wells. […]

Data set [5] in a line: Interfacial tension between electron donor solutions and nonaqueous phase TCE, pendant drop method. It counts as physicochemical. The note with it: 0% ethyl lactate. As for the experimental part:
as §1
The laboratory study performed to confirm the co-solvent properties of the high concentration electron donor solution measured the surface tension of electron donor solutions at various concentrations. Next, interfacial tensions between the same electron donor solutions and nonaqueous phase TCE were measured. […]

Consider `CCOC(=O)C(C)O` (centres unmarked) [ethyl lactate], for which, in data set [1] (1% and 10% ethyl lactate added to sodium lactate solutions), the “effect on the solution's surface tension” value is given as “pronounced effect”.

In the case of `CC(O)C(=O)[O-].[Na+]` (centres unmarked) [sodium lactate], the “reductive dechlorination of TCE to ethene” value in data set [2] is “Enhanced reductive dechlorination of TCE to ethene was observed”. Also, the “increase of PCE concentrations” value in data set [3] (at least one well, following injection) is recorded as “greater than fifteen-fold”. Further, in data set [3] (by the third month), the “reductive dechlorination of PCE and TCE” value was “dramatically transformed to cis-1,2-DCE”. Moreover, the “biomass (phospholipid fatty acid analysis)” value in data set [3] (close to the injection well) is listed as “increased up to an order of magnitude”. For the same compound, the entries for the “radius of influence within which PCE was converted to DCE” value in data set [3] (crossgradient) and in data set [3] (downgradient) were “approximately 6 m” and approximately 8 m, respectively. Besides, the “change in surface tension” value in data set [1] (sodium lactate 0.01 to 7%) is listed as “almost no change”; in data set [1] (sodium lactate increased to 30 and 60%) it was “dramatic decrease”. Moreover, in data set [4] (10 of 15 wells), the TCE concentrations result is recorded as “below detectable levels and/or the maximum contaminant level (MCL)”. Further, the TCE concentration result in data set [4] (well 03-010MW, pre-lactate around 5,690) is “approximately 50 μg/L”; in data set [4] (well 03-020MW, pre-lactate around 4,600), approximately 130 µg/L. Also, the “interfacial tension as % of the value at 0.1% sodium lactate” value in data set [5] (sodium lactate 30%) is recorded as 47%. In addition, the “decrease of interfacial tension” value in data set [5] (sodium lactate increased from 0.1 to 3%) is recorded as “about 26%”.
